Results: article PMC7707621, “Oxidized Juncuenin B Analogues with Increased Antiproliferative Activity on Human Adherent Cell Lines: Semisynthesis and Biological Evaluation” (Journal of Natural Products, 2020)

Key:
C33A cells = test: MTT antiproliferative assay on C33A; format: cell-based, human; conditions: Homo sapiens, C-33-A; for inhibition at 10 µM / inhibition at 30 µM: read-out: Growth inhibition (% ± SEM), C33a; for IC50: MTT, 0.1–30 μM, 72 h, mean ± SEM, read-out: calculated IC50 values, C33A
Procedure: (§1) The antiproliferative assays of the products were carried out by a standard MTT method on human breast (MCF-7, T47D), cervical (HeLa, SiHa, C33A), and ovarian (A2780) cancer cells, and NIH/3T3 mouse embryonic fibroblast cell lines. In the first step, the diastereomeric and racemic mixtures 1–11 and the starting compound, juncuenin B, were tested to obtain information about their antiproliferative activity.
(§2) The antiproliferative activity and tumor selectivity of the compounds were measured by standard MTT assays. Tumor cell lines MCF-7, T47D, HeLa, A2780, and noncancerous NIH/3T3 were provided by European Collection of Authenticated Cell Cultures (ECACC, Salisbury, UK); cell lines SiHa and C33A by LGC Standards GmbH (Wesel, Germany). All chemicals and materials used for the antiproliferative assays were purchased from Sigma Aldrich Ltd. (Budapest, Hungary).
(§3) Growth-inhibition properties of racemates and pure enantiomer compounds were determined by standard MTT assays on six human malignant gynecological cell lines (MCF-7, T47D, HeLa, SiHa, C33A, A2780). To investigate tumor selectivity, the MTT assay was repeated on mouse embryonic fibroblast cells (NIH/3T3) under the same conditions. All cell lines were maintained in minimal essential medium (MEM) supplemented with 10% fetal bovine serum, 1% nonessential amino acids, and 1% penicillin–streptomycin–amphotericin B mixture, and were stored in humidified air containing 5% CO2 at 37 °C. All cell types were seeded into 96–well plates at a density of 5000 with the exception of C33a, which was seeded at a density of 10 000 and treated by increasing concentrations (0.1–30 μM) of the compounds for 72 h under cell culturing conditions. After the incubation, 5 mg/mL MTT [3-(4,5-dimethylthiazol-2-yl)-2,5-diphenyltetrazolium bromide] solution was added to samples for 4 h and precipitated blue formazan crystals were dissolved in DMSO. Absorbance values of the samples were measured at 545 nm using a microplate reader (Stat Fax-2100, Awareness Technologies Inc., Palm City, FL, USA) and untreated cells were used as control. Normalized sigmoidal dose–response curves were fitted to the determined data and the IC50 values were calculated by GraphPad Prism 5.01 (GraphPad Software, San Diego, CA, USA). Cisplatin (Ebewe Pharma GmbH, Unterach, Austria) was used as a reference agent in the same concentration range.

T47D cells = test: MTT antiproliferative assay on T47D; format: cell-based, human; conditions: Homo sapiens, T47D; for inhibition at 10 µM / inhibition at 30 µM: read-out: Growth inhibition (% ± SEM), T47d; for IC50: MTT, 0.1–30 μM, 72 h, mean ± SEM, read-out: calculated IC50 values, T47D
Procedure: as §1, §2, §3

[1] = test system: NIH/3T3 mouse embryonic fibroblast cells; test: MTT assay for tumor selectivity on NIH/3T3; format: cell-based; conditions: for inhibition at 10 µM / inhibition at 30 µM: read-out: Growth inhibition (% ± SEM), NIH
Procedure: as §1, §2, §3

MCF-7 cells = test: MTT antiproliferative assay on MCF-7; format: cell-based, human; conditions: Homo sapiens; for inhibition at 10 µM: MCF7, 10 μM; for inhibition at 10 µM / inhibition at 30 µM: read-out: Growth inhibition (% ± SEM), MCF-7; for inhibition at 30 µM: MCF7, 30 μM; for IC50: MCF7, MTT, 0.1–30 μM, 72 h, mean ± SEM, read-out: calculated IC50 values, MCF-7
Procedure: as §1, §2, §3

SiHa cells = test: MTT antiproliferative assay on SiHa; format: cell-based, human; conditions: Homo sapiens, SiHa; for inhibition at 10 µM / inhibition at 30 µM: read-out: Growth inhibition (% ± SEM), SiHa; for IC50: MTT, 0.1–30 μM, 72 h, mean ± SEM, read-out: calculated IC50 values, SiHa
Procedure: as §1, §2, §3

HeLa cells = test: MTT antiproliferative assay on HeLa; format: cell-based, human; conditions: Homo sapiens, HeLa; for inhibition at 10 µM / inhibition at 30 µM: read-out: Growth inhibition (% ± SEM), HeLa; for IC50: MTT, 0.1–30 μM, 72 h, mean ± SEM, read-out: calculated IC50 values, HeLa
Procedure: as §1, §2, §3

A2780 cells = test: MTT antiproliferative assay on A2780; format: cell-based, human; conditions: Homo sapiens; for inhibition at 10 µM: A2780, 10 μM; for inhibition at 10 µM / inhibition at 30 µM: read-out: Growth inhibition (% ± SEM), A2780; for inhibition at 30 µM: A2780, 30 μM; for IC50: A2780, MTT, 0.1–30 μM, 72 h, mean ± SEM, read-out: calculated IC50 values, A2780
Procedure: as §1, §2, §3

Row | SMILES | inhibition at 10 µM (C33A cells) [%] | inhibition at 30 µM (C33A cells) [%] | IC50 (C33A cells) [µM] | inhibition at 10 µM (T47D cells) [%] | inhibition at 30 µM (T47D cells) [%] | IC50 (T47D cells) [µM] | inhibition at 10 µM ([1]; Mus musculus, NIH3T3) [%] | inhibition at 30 µM ([1]; Mus musculus, NIH3T3) [%] | inhibition at 10 µM (MCF-7 cells) [%] | inhibition at 30 µM (MCF-7 cells) [%] | IC50 (MCF-7 cells) [µM] | inhibition at 10 µM (SiHa cells) [%] | inhibition at 30 µM (SiHa cells) [%] | IC50 (SiHa cells) [µM] | inhibition at 10 µM (HeLa cells) [%] | inhibition at 30 µM (HeLa cells) [%] | IC50 (HeLa cells) [µM] | inhibition at 10 µM (A2780 cells) [%] | inhibition at 30 µM (A2780 cells) [%] | IC50 (A2780 cells) [µM] | other results
1 | C=CC1=C(C)C(=O)C=C2C3=C(CC[C@]21OC)[C@@](C)(OC)C(=O)C=C3 [Compound 1b, 2,6-dioxo-1,8a-dimethoxy-1,7-dimethyl-8-vinyl-9,10-dihydrophenanthrenes] | 46 ± 2.01 | 95.12 ± 0.44 | 10.2 ± 1.7 | 13.6 ± 1.33 | 43.8 ± 1.31 | > 30 | < 10 | 41.9 ± 1.35 | 14.2 ± 3.54 | 31.9 ± 1.28 | > 30 | < 10 | 27.7 ± 1.96 | > 30 | 16.3 ± 2.68 | 42.6 ± 2.07 | > 30 | 52.2 ± 1.02 | 96.61 ± 0.23 | 9 ± 1 | 
2 | C=CC1=C(C)C(=O)C=C2C3=C(CC[C@@]21OC)[C@](C)(OC)C(=O)C=C3 [Compound 1c, 2,6-dioxo-1,8a-dimethoxy-1,7-dimethyl-8-vinyl-9,10-dihydrophenanthrenes] | 85.7 ± 1.16 | 96.31 ± 0.17 |  | 36.4 ± 2.76 | 84.5 ± 1.63 | 12.5 ± 0.9 | < 10 | 69.4 ± 1.87 | 10.2 ± 4.97 | 28.1 ± 1.14 | > 30 | < 10 | 57.5 ± 2.33 | 28.1 ± 0.1 | 28.3 ± 1.66 | 36.1 ± 0.87 | > 30 | 68.5 ± 0.75 | 98.88 ± 0.1 |  | 
3 | C=CC1=C(C)C(=O)C=C2C3=C(CC[C@]21OC)[C@](C)(OC)C(=O)C=C3 [Compound 1d, 2,6-dioxo-1,8a-dimethoxy-1,7-dimethyl-8-vinyl-9,10-dihydrophenanthrenes] | 22.1 ± 1.44 | 89.4 ± 1 | 13 ± 0.2 | < 10 | 41.8 ± 1.15 | > 30 | < 10 | 30.7 ± 2.04 | < 10 | 34.6 ± 1.38 | > 30 | < 10 | 11.6 ± 2.33 | > 30 | 11.4 ± 2.71 | 25.1 ± 3.84 | > 30 | 45.1 ± 2.08 | 92.39 ± 0.36 | 11 ± 0.4 | IC50 ([1]; Mus musculus, NIH3T3, MTT, 0.1–30 μM, 72 h, mean ± SEM, read-out: calculated IC50 values, NIH/3T3): > 30 µM
4 | C=CC1=C(C)C(=O)C=C2c3ccc(O)c(C)c3CC[C@@]21OC [Compound 4a] | 58.41 ± 0.31 | 66.6 ± 0.74 |  | 37 ± 1.07 | 48.1 ± 1.47 | > 30 | 19.2 ± 1.41 | 51.7 ± 1.68 | 61.5 ± 1.87 | 58.5 ± 0.86 |  | < 10 | 26.3 ± 1.36 | > 30 | 88.1 ± 0.89 | 62.3 ± 2 |  | 44.5 ± 2.01 | 73.18 ± 0.4 |  | 
5 | C=CC1=C(C)C(=O)C=C2c3ccc(O)c(C)c3CC[C@@]21OCC [Compound 7a, 8a-ethoxy-1,7-dimethyl-6-oxo-8-vinyl-9,10-dihydrophenanthrene-2-ols] | 73.18 ± 0.61 | 86.42 ± 0.5 |  | 57.4 ± 2.46 | 57 ± 1.24 |  | 23.3 ± 1.48 | 33.8 ± 1.74 | 41.7 ± 1.37 | 54.5 ± 1.33 | 20.6 ± 0.3 | 17 ± 1.88 | < 10 | > 30 | 71.1 ± 1.57 | 86.1 ± 1.29 |  | 82.1 ± 0.54 | 84.75 ± 0.4 |  | activity against nontumoral NIH/3T3 cells (in words) ([1]; MTT): inactive
